The structures appear in SMILES notation. Active and inactive are the calls of the source. No rule for the calls is given here.

For the experiment, the target named is Sphingosine 1-phosphate receptor 1 (Homo sapiens) (UniProt P21453). The experiment can be described thus: PubChem AID 2351. Particulars: S1P1-expressing cells, fluorescence antagonist assay.
Sequence of Sphingosine 1-phosphate receptor 1 (Homo sapiens) (P21453 whole entry, looked up): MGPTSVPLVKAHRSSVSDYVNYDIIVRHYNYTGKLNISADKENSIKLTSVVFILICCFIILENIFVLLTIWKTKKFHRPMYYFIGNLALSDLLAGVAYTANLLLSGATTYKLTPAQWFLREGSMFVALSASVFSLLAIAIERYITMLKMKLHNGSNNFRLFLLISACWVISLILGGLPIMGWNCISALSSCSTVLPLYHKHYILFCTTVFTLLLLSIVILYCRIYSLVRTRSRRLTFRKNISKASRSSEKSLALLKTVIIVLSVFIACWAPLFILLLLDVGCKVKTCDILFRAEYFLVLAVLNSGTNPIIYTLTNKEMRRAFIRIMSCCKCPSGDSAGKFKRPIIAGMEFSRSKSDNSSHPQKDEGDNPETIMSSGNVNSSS

By IC50 is commonly meant the concentration that gives 50% inhibition. In the case of `Cc1cccc(C)c1NC(=O)c1ccc(-c2cc(Cl)ccc2Cl)o1`, the IC50 is > 25 µM (inactive).

(Values after PubChem BioAssay AID2351 (The Scripps Research Institute Molecular Screening Center, 2010).)
